The values below come from ChEMBL document CHEMBL3400013, “Synthesis and biological activity evaluation of hydrazone derivatives based on a Tröger's base skeleton” (Bioorg Med Chem, 2015).

The source made the active and inactive calls. The rule behind the calls is not given here.

For this assay, the system named is Mycobacterium tuberculosis. In words: Antimicrobial activity against Mycobacterium bovis BCG up to 100 uM after 24 to 48 hrs by broth microdilution method. It is filed as functional, organism-based. The note with it: variant bovis BCG. (In general: Broth dilution looks for growth in wells or tubes with falling amounts of substance.)
As to `O=C(N/N=C/c1ccccc1O)c1ccc2c3c(ccc2c1)N1Cc2c(ccc4cc(C(=O)N/N=C/c5ccccc5O)ccc24)N(C3)C1`, the outcome was inactive.
Under `COc1cccnc1/C=N/NC(=O)c1ccc2c3c(ccc2c1)N1Cc2c(ccc4cc(C(=O)N/N=C/c5ncccc5OC)ccc24)N(C3)C1` stands “inactive”; under `O=C(N/N=C/c1cc(F)ccc1O)c1ccc2c3c(ccc2c1)N1Cc2c(ccc4cc(C(=O)N/N=C/c5cc(F)ccc5O)ccc24)N(C3)C1`, “inactive”.
Under `COc1ccc(O)c(/C=N/NC(=O)c2ccc3c4c(ccc3c2)N2Cc3c(ccc5cc(C(=O)N/N=C/c6cc(OC)ccc6O)ccc35)N(C4)C2)c1` stands “inactive”.
Under `O=C(N/N=C/c1nccc2ccccc12)c1ccc2c3c(ccc2c1)N1Cc2c(ccc4cc(C(=O)N/N=C/c5nccc6ccccc56)ccc24)N(C3)C1` stands “inactive”; under `O=C(NN=C(c1ccccn1)c1ccccn1)c1ccc2c3c(ccc2c1)N1Cc2c(ccc4cc(C(=O)NN=C(c5ccccn5)c5ccccn5)ccc24)N(C3)C1`, “inactive”.
For the molecule `O=C(N/N=C/c1cc(Cl)ccc1O)c1ccc2c3c(ccc2c1)N1Cc2c(ccc4cc(C(=O)N/N=C/c5cc(Cl)ccc5O)ccc24)N(C3)C1`, the outcome was inactive.
For `Cc1ccc(O)c(/C=N/NC(=O)c2ccc3c4c(ccc3c2)N2Cc3c(ccc5cc(C(=O)N/N=C/c6cc(C)ccc6O)ccc35)N(C4)C2)c1` the value was “inactive”; for `COC(=O)c1ccc(O)c(/C=N/NC(=O)c2ccc3c4c(ccc3c2)N2Cc3c(ccc5cc(C(=O)N/N=C/c6cc(C(=O)OC)ccc6O)ccc35)N(C4)C2)c1`, “inactive”; for `O=C(N/N=C/c1cc([N+](=O)[O-])ccc1O)c1ccc2c3c(ccc2c1)N1Cc2c(ccc4cc(C(=O)N/N=C/c5cc([N+](=O)[O-])ccc5O)ccc24)N(C3)C1`, “inactive”.
Under `O=C(N/N=C/c1cc(O)ccc1O)c1ccc2c3c(ccc2c1)N1Cc2c(ccc4cc(C(=O)N/N=C/c5cc(O)ccc5O)ccc24)N(C3)C1` stands “inactive”.
